According to patent US9004743B2, “Mixing device for creating an output mixture by mixing a first material and a second material” (Revalesio Corporation, priority 2006, dated 2015):
Where two headings read alike, the source gives them in different places.

Experiments:
Tilapia = conditions: cited from earlier work
glutathione peroxidase = test: Glutathione peroxidase study; type: biochemical; conditions: A340 nm, 25 degrees Celsius
Protocol: The inventive oxygen-enriched output fluid material was tested for the presence of hydrogen peroxide by testing the reactivity with glutathione peroxidase using a standard assay (Sigma). Briefly, glutathione peroxidase enzyme cocktail was constituted in deionized water and the appropriate buffers. Water samples were tested by adding the enzymatic reagents. Continuous spectrophotometric rate determination was made at A340 nm, and room temperature (25 degrees Celsius).

Row | reactivity with glutathione peroxidase (glutathione peroxidase) | SMILES | final increase in weight of the fish (Tilapia; high dissolved oxygen levels (approximately 7.0 ppm)) | final increase in weight of the fish (Tilapia; low DO levels (less than 2 ppm)) | reduction in growth rates (Tilapia; low DO versus high DO) | final increase in weight of the fish (Tilapia; mid-level DO (approximately 3.5 ppm)) | reduction in growth rates (Tilapia; mid-level DO versus high DO)
1 |  | O=O [dissolved oxygen, oxygen] | 19 grams | 1.5 g | 92% | 5 grams | 74%
2 | strong reactivity | OO [hydrogen peroxide] |  |  |  |  | 
